# Earlier results as cited in patent US20230372318A1, “METHODS FOR TREATING A SUBJECT HAVING MULTIPLE SYSTEM ATROPHY” (Theravance Biopharma R&D IP, LLC, priority 2022, published 2023).
# Where two headings read alike, the source gives them in different places.
# How the values were obtained:
# [1] = system: adult patients with symptomatic nOH; conditions: prescribing information, black box warning; cited from earlier work
# [2] = system: nOH in MSA patients and non-MSA patients; conditions: cited from earlier work
# [3] = system: patients with central autonomic failure; conditions: cited from earlier work
SMILES,Main side effect [1],Effect against nOH ([2]; MSA patients),Effect against nOH ([2]; non-MSA patients),Effect on blood pressure [3]
"N[C@H](C(=O)O)[C@H](O)c1ccc(O)c(O)c1 [droxidopa, L-threo-3-4-dihydroxyphenylserine]",supine hypertension,–,–,–
CNCC[C@@H](Oc1ccccc1C)c1ccccc1 [Atomoxetine],–,ineffective,showing improvement,increase blood pressure
